According to US10407465B2, “Peptides enhancing neuronal outgrowth and application thereof” (Schweitzer Biotech Company Ltd., priority 2014, dated 2019):
Structures can show the parent of a compound that is named as a salt. No end group written: not given here.

How the values were obtained:
[1] = system: embryonic hippocampal primary neurons; assay: Cell viability (MTT) assay for neurotoxicity; assay type: cell-based, Sprague-Dawley rats; settings: 10^−3 M, 10^−6 M, 10^−9 M, 10^−12M for 24 hours from 1 DIV; p>0.05
Protocol: At the first day in vitro (1 DIV), embryonic hippocampal primary neurons were treated with 10^−3 M, 10^−6 M, 10^−9 M, 10^−12M C5 peptide or C6 peptide, respectively, for 24 hours, followed by cell viability assay.
Cell viability was evaluated by an MTT (3-(4,5-cimethylthiazol-2-yl)-2,5-diphenyl tetrazolium bromide) assay. Cells were incubated with an MTT reagent (0.5 mg/mL, Sigma-Aldrich, USA) at 37° C. for 1 hour. The MTT solution was removed, and DMSO was added to the wells shaken at room temperature for 1 hour. The amount of MTT formazan product was quantified by measuring its absorbance at 570 and 630 nm by using an ELISA plate reader (SpectraMax M2 Microplate Readers, Molecular Devices, Sunnyvale, Calif., USA).

[2] = system: embryonic hippocampal primary neurons; assay: Neuronal outgrowth assay with immunocytochemistry (anti-Tau, anti-MAP2, DAPI); assay type: cell-based, Sprague-Dawley rats; settings: for lengths of the first and second order axon branches: p<0.01 or p<0.05; for axon outgrowth: L-form peptide 10^−9 M, treatment at 3 DIV for 3 days, vs PBS negative control
Protocol: In order to culture embryonic hippocampal primary neurons, pregnant Sprague-Dawley rats were purchased from the National Laboratory Center in Taiwan (Taipei, Taiwan). The hippocampal tissue from the embryos of the Sprague-Dawley rats (embryonic day 19, E19) was dissociated with enzyme and plated onto poly-L-lysine-coated coverslips with a minimal essential medium containing 5% calf serum, 5% horse serum, and 50 ng/mL insulin-transferrin-selenite (Sigma-Aldrich, St. Louis, Mo., USA). After plating, the medium was replaced with 2% of B27-neurobasal medium (Invitrogen, Carlsbad, Calif., USA) containing 0.5 mM glutamine and […]. Embryonic hippocampal primary neurons were incubated at 37° C., 5% CO2 for further experimental treatment.
Primary hippocampal neuron cultures at 3 days in vitro (at DIV3) were treated with 10^−9 M, 10^−12M, 10^−15 M C5 peptide (L-form), 10^−9 M, 10^−12M, 10^−15 M C6 peptide (L-form), 10^−9 M P1 peptide (L-form), 10^−9 M P2 peptide (L-form), 10^−9 M P3 peptide (L-form), 10^−9 M P4 peptide (L-form), 10^−9 M P5 peptide (L-form), 10^−9 M P6 peptide (L-form), 10^−9 M C5 peptide (D-form), and 10^−12 C6 peptide (D-form), respectively, for 3 days, followed by immunocytochemistry. Embryonic hippocampal primary neurons of negative control were treated with PBS. Each treatment condition was run in 3 replicates.
Cultured hippocampal neurons were fixed with 4% paraformaldehyde and permeablized with 0.1% Triton X-100 at room temperature (RT). Cultures were then incubated in the primary rabbit anti-Tau antibody (a selective marker for axons, Millipore, Mass., USA) and the primary mouse anti-MAP2 antibody (microtubule-associated protein-2, which is a selective marker for dendrites, Millipore) for 1 hour at RT. After wash, cells were incubated with Alexa Fluor® 488 goat anti-rabbit secondary antibody (green fluorescence, Abcam Plc., UK) and Alexa Fluor® 594 goat anti-mouse secondary antibody (red fluorescence, Abcam Plc.) for 1 hour at RT. Then, nuclei were stained with 4′,6-diamidino-2-phenylindole (DAPI, blue fluorescence, Vector Laboratories, USA). After that, coverslips were mounted on the cells, and images were obtained by using an Axio Observer D1 microscope (Zeiss, Jena, Germany) and analyzed by ImageJ software (Inage Processing and Analysis in Java, National Institutes of Health, USA). Neuronal process longer than 10 μm is defined as a neurite.
An axon extending from the cell body of a neuron is defined as a first order axon branch; an axon extending from a first order axon branch is defined as a second order axon branch, and an axon extending from a second order axon branch is defined as a third order axon branch, et cetera (FIG. 3A). Only axons longer than 10 μm are counted.

[3] = system: Sco-induced amnesia animal model; assay: Step-down passive avoidance test, scopolamine-induced memory deficits; assay type: in vivo, Sprague-Dawley rats; settings: scopolamine 1.5 mg/kg/day alone; 1 day after footshock; vs control
Protocol: Animals were familiar to the instrument 24 hours before training. Next day rats placed on the elevated platform situated in the center of the floor of the passive avoidance test box and the latency to stepping down recorded. On the third day of the experiment immediately after stepping down, animals received mild electric shock (3V, 3 seconds duration, D.C.) through the grid floor and then returned to their home cages. On the following day (as 24 hours retention interval) rats placed on the platform again while no electric shock was given to them. Latency to step down recorded. If the rat remained on the platform for the 5 minutes, it assigned a maximum score of 300 seconds.
Rats were randomly divided into negative control group, Scopolamine only group, (C5+Sco) group and (C6+Sco) group, and rats in the four groups were injected with vehicle (negative control group and scopolamine only group), C5 peptide (54 μg/kg/day, C5+Sco group), and C6 peptide (5.4 μg/kg/day, C6+Sco group), respectively, for 14 consecutive days. After that, rats in the 4 groups were intraperitoneally injected with vehicle (negative control group), vehicle and scopolamine (1.5 mg/kg/day)(scopolamine only group), C5 peptide (54 μg/kg/day) and scopolamine (1.5 mg/kg/day) (C5+Sco group), and C6 peptide (5.4 μg/kg/day) and scopolamine (1.5 mg/kg/day) (C6+Sco group), respectively, for 7 consecutive days. […]

[4] = system: Sco-induced amnesia animal model; assay: Water maze learning, scopolamine-induced memory impairment; assay type: in vivo, Sprague-Dawley rats; settings: scopolamine 1.5 mg/kg/day i.p. alone; vs negative control; P<0.01
Protocol: (§1) A plastic circular pool 183 cm in diameter was filled with water (25±2° C.). A circular platform was placed at a specific location from the edge of the pool and submerged below the water surface. Water was made cloudy by adding toxic-free dye. Distinctive visual cues were set on the wall. For spatial learning, animals were subjected to 3 trials per day, with one trial early in the morning, one trial at noon, and another in the late afternoon. The training procedure lasted 4 days, and a total of 12 trials were given. The rats were positioned at different starting points spaced equally around the perimeter of the pool in random order. They had 60 seconds to swim in the pool. If a rat could not find the platform, it was guided to the platform and was allowed to remain there for 20 seconds. The time each animal took to reach the platform was recorded as the escape latency. A probe trial of 60 seconds was given on Day 5 to test their memory retention. The rats were placed in the pool with the platform removed, and the time they spent in each quadrant (Quadrants 1, 2, 3, and 4) was recorded. The longer a rat stayed in the target quadrant (quadrant 4), the better memory the rat had. At the end of the experiment, the rats were subjected to visible platform learning. […] The time the rats found the platform was recorded. […]

[5] = system: Sco-induced amnesia animal model; assay: Novel object recognition learning, scopolamine-induced memory deficits; assay type: in vivo, Sprague-Dawley rats; settings: scopolamine 1.5 mg/kg/day alone; vs time on left object; P>0.05
Protocol: During familiarization, rats were allowed to explore 2 identical objects in an open field box (90×70×60 cm) for 5 min. The criteria used for exploration were a distance less than 1.5 cm between the rat and the object or direct contact with the object. During the retention test given 3 hours and 24 hours later, the rats were returned to the same box, but one of the familiar objects was replaced with a novel object of approximately the same size. The time that each rat spent exploring the 2 objects during a 5-min period was recorded. The rats placed in the open field box without any objects for 5 min were assigned to the non-trained group.
Both C5 peptide and C6 peptide ameliorate scopolamine-induced memory deficits. […] Then, behavioral experiments were conducted, and the injection program with scopolamine continued through the experimentation. The injection volume was 1 μL/g of body weight. The scopolamine injection was performed 30 minutes before behavioral experiments every morning, and the C5 peptide or C6 peptide injection was conducted once daily at 5:00 PM 1 day prior. […] Three (3) hours, 8 hours and 24 hours after, a novel object (NO) replaced the RO.

[6] = system: D-Galactose induced aging model rats; assay: Water maze learning, D-galactose induced aging; assay type: in vivo, Sprague-Dawley rats; settings: D-galactose 150 mg/kg/day i.p. alone for 9 weeks
Protocol: as §1

[7] = system: MPTP-mouse model of Parkinson's disease; assay: Rotarod performance test; assay type: in vivo, C57BL/6 male mice; settings: MPTP 30 mg/kg i.p. alone; negative control 778.5 seconds; p<0.01
Protocol: C57BL/6 male mice at the age of 5 weeks were randomly divided into 3 groups and intraperitoneally injected with PBS (negative control), MPTP (30 mg/kg)(MPTP group), and C6 peptide (10.7 μg/kg) and MPTP (30 mg/kg)(C6+MPTP group), respectively. The injection volume was calculated based on the body weight of each mouse everyday. Mice of the C6+MPTP group were injected C6 peptide for 3 weeks prior to injection of C6 peptide and MPTP for 1 week, and then subjected to rotarod performance test.
Rotarod performance tests were conducted to measure the coordination of mice. Mice were placed on the rod and ran at 2 rpm constant speed for 2 minutes in order to adapt to the rod. After that, rod was started to accelerate to 20 rpm (within 5 minutes) and sustained for 15 minutes. The time (latency) at which each mouse fell off the rod was recorded.

Compound | lengths of the first and second order axon branches ([2]; 10^−9 M, vs negative control) | axon outgrowth [2] | other results
NAIPQ [C5 peptide, NAIPQ] |  |  | neurotoxic effect (cell viability, MTT) [1]: no significant neurotoxic effect
NMYPQ (Petide for enhancing neuronal outgrowth) [P2 peptide] | longer | enhanced axon outgrowth | 
NIKPQ (Petide for enhancing neuronal outgrowth) [P3 peptide] | longer | enhanced axon outgrowth | 
NPSPQ [C6 peptide, NPSPQ] |  |  | neurotoxic effect (cell viability, MTT) [1]: no significant neurotoxic effect
NVAPQ (Petide for enhancing neuronal outgrowth) [P5 peptide] | longer | enhanced axon outgrowth | 
NLMPQ (Petide for enhancing neuronal outgrowth) [P4 peptide] | longer | enhanced axon outgrowth | 
CN1[C@@H]2C[C@@H](OC(=O)[C@H](CO)c3ccccc3)C[C@H]1[C@@H]1O[C@@H]12 [Sco, Scopolamine hydrochloride] |  |  | stepping down (jumping error number) [3]: stepped down more; escape latency in finding the hidden platform [4]: longer escape latency; exploratory preference for the novel object (NO) [5]: no exploratory preference for the NO
NWLPQ (Petide for enhancing neuronal outgrowth) [P6 peptide] | longer | enhanced axon outgrowth | average number of second order axon branches ([2]; 10^−9 M, negative control 2.5, p<0.01): 4.2; lengths of the third order axon branches ([2]; 10^−9 M, vs negative control, p<0.05): significantly longer
O=C[C@H](O)[C@@H](O)[C@@H](O)[C@H](O)CO [D-Galactose, D-(+)-galactose] |  |  | average escape latency in finding the hidden platform [6]: 53.06 s
NFEPQ (Petide for enhancing neuronal outgrowth) [P1 peptide] | longer | enhanced axon outgrowth | 
CN1CC=C(c2ccccc2)CC1 [MPTP, 1-methyl-4-phenyl-1,2,3,6-tetrahydropyridine] |  |  | average latency to fall [7]: 159.8 s
